{"source": "patent EP2349259B1", "about": "“INHIBITORS OF MITOSIS FOR […] IN THERAPY” (Array Biopharma, Inc., priority 2008, dated 2010)", "key": {"[1]": {"test": "Determination of MTD in a Phase 1 Study", "format": "in vivo, human", "details": "IV on Days 1 and 2 every two weeks", "source_text": "A total of 13 patients with various solid tumors and with a median age of 66 years (range 40-79 years old) were enrolled in a human phase 1 clinical trial (see \"Phase 1 Safety and Phamacokinetic Study of ARRY-520 in Solid Tumors.\" http://clinicaltrials.gov/ct2/show/NCT00462358). The solid tumors treated were breast cancer (2), colorectal cancer (2), non-small cell lung cancer (2), pancreatic cancer (2), bladder cancer, salivary gland cancer (adenoid cystic), esophageal cancer, mesothelioma cancer, and a mixed small cell lung cancer / non-small cell lung cancer. Compound 4 was provided for administration as a lyophilized powder contained in a Type 1 clear glass vial for IV use. The dose levels administered were 1.25 and 1.6 mg/m^2/day of Compound 4 on Days 1 and 2 every two weeks."}, "[2]": {"test": "Determination of MTD of Compound 4 in mice (HT-29 xenograft study)", "details": "mouse, in vivo; female nude mice with subcutaneous HT-29 xenografts; compound dissolved in normal saline", "protocol": "Female nude mice were implanted subcutaneously with 5 x 10^6 HT-29 cells in 100 µL PBS. Ten days Inter, tumors were measured and mice randomized into groups of three with average tumor volume in each group of approximately 240 mm^3. Compound 4 was dissolved in normal saline immediately before dosing. It was determined that 20 mg/kg was the MTD for Compound 4. Dose volume was 10 mL/kg. Dosing was vehicle alone on day 1; and Compound 4 at 20 mg/kg on day 1; and 20 mg/kg on days 1 and 3. At various time points after dosing (24, 48, 72, 96, 120 and 144 hours), mice were euthanized by CO2 inhalation, and the tumors were harvested and immediately placed in formalin. The vehicle control group samples were collected 24 and 72 hours after dosing. The day I group samples were collected 24, 48, 72 and 96 hours after that dose. The day 1 and day 3 group samples were collected 72, 96, 120 and 144 hours after the first dose. Paraffin blocks of tumor tissue were prepared by standard procedures. […] Spindle structures were manually counted in three 40X areas of each sample, using a fluorescent microscope. Apoptosis was quantitated by manual counting of TUNEL positive cells, also in three 40X areas of each sample (TUNEL staining using the In Situ Cell Death Detection Kit, AP from Roche)."}, "[3]": {"test": "Tolerability in tumor growth inhibition study on different dosing schedules (HT-29)", "format": "in vivo, nude mice", "details": "10 mg/kg IP on days 1, 2, 3, 4 and 5", "protocol": "Female nude mice were implanted subcutaneously with 5 x 10^6 HT-29 cells in 100 µL PBS. Eleven to fourteen days later, tumors were measured and mice randomized into groups of seven with average tumor volume in each group of approximately 230 mm^3. Compound 4 was dissolved in normal saline immediately prior to dosing, and administered IP at a volume of 10 mL/kg. Dosing was vehicle alone on day 1 and day 2; and Compound 4 at 20 mg/kg on day 1; 20 mg/kg on days I and 2; 20 mg/kg on days 1 and 3; 5 mg/kg on days 1, 2 and 3; 10 mg/kg on days 1, 2 and 3; 10 mg/kg on days 1, 2, 3, 4 and 5; 10 mg/kg on days 1 and 2; and 10 mg/kg on days 1 and 3. Animal weights and tumor volumes were measured (using electronic calipers) twice a week. Tumor volume was calculated using the formula: volume = (width^2 x length)/2. Dosing at 10 mg/kg on days 1, 2, 3, 4 and 5 was not tolerated (greater than 20% weight loss and/or death in some of the mice)."}}, "data": [{"smiles": "CON(C)C(=O)N1N=C(c2cc(F)ccc2F)S[C@@]1(CCCN)c1ccccc1", "note": "[Compound 4, (S)-2-(3-aminopropyl)-5-(2,5-difluorophenyl)-N-methoxy-N-methyl-2-phenyl-1,3,4-thiadiazole-3(2H)-carboxamide]", "values": [{"measurement": "MTD", "setting": "[1]; 13 patients with various solid tumors, dose levels 1.25 and 1.6 mg/m^2/day", "value": 1.25, "unit": "mg/m^2/day"}, {"measurement": "DLTs", "setting": "[1]; patients with solid tumors", "value": "Grade 3 hyponatremia, anorexia, AST increase and febrile neutropenia"}, {"measurement": "MTD, cumulative dose per cycle", "setting": "[1]; patients with solid tumors", "value": 2.5, "unit": "mg/m^2"}, {"measurement": "MTD", "setting": "[2]", "value": 20, "unit": "mg/kg"}, {"measurement": "tolerability of dosing schedule", "setting": "[3]; female nude mice with HT-29 xenografts", "value": "not tolerated"}, {"measurement": "weight loss", "setting": "[3]; weight loss and/or death in some of the mice", "value": "greater than 20%"}]}]}
